Experimental data as given in US11352358B2, “FXR agonist” (XUANZHU BIOPHARMACEUTICAL CO., LTD., priority 2017, dated 2022).
pEC50: −log10 of the molar value.

Tests used:
SHP mRNA in AML12 cells = test: Relative expression of SHP mRNA in AML12 cells, EC50 (Experimental Example 4); assay type: cell-based; settings: Mus musculus, 24 hrs
Procedure: compounds of the present invention (for their chemical names and preparation methods, see the preparation example for each compound).
AML12 cells: mouse liver cells.
Control: compound 1-1B with a structure shown as follows, prepared according to a prior art method (for detailed information, see patent application WO2012087519A1).
Cells were digested with pancreatin and collected, and the concentration of the cells was determined; according to the counting result, the cells were resuspended to a density of 7.5×10^4 cells/mL; 1 mL of the cell suspension was inoculated in each well of a 12-well cell culture plate; and the culture plate was placed in an incubator and cultured under the conditions of 37° C. and 5% CO2 for 24 hrs.
The compound were diluted to 1000, 200, 8, 1.6, 0.32, 0.128, 0.0256 and 0.00512 μM with DMSO. Compound solutions of different concentrations obtained in the previous step were further diluted by 1000 times with media to obtain working solutions, and a medium containing 0.1% of DMSO was adopted as a control group. The cell culture plate was taken out from the incubator, the medium was removed, and the working solutions and the control medium were added. The culture plate was placed back into the incubator and cultured under the conditions of 37° C. and 5% CO2 for 24 hrs.
after treatment for 24 hrs, the cell culture plate was taken out from the incubator, and the medium was removed from the plate; the cells were rinsed three times with pre-cooled (4° C.) PBS (phosphate buffer solution); and 200 μL of pancreatin (preheated to 37° C.) was added to each well, and the plate was then gently shaken such that the pancreatin could evenly cover the plate bottom. The culture plate was then placed back into the incubator and incubated until the cells were separated from the plate bottom. 1 mL of medium was added to terminate digestion. […]

[1] = Liver microsome metabolism stability, rat liver microsome; assay type: in vitro ADME, SD rat; settings: 0.5 mg protein/mL, test sample 1 μM, β-NADPH
Procedure: (§1) Test samples: the homemade compounds 1, 2, 4 and 5 of the present invention (for their chemical names and preparation methods, see the preparation example for each compound).
(§2) a mixed liver microsomes of SD rat and human both purchased from XenoTech, with batch Nos.: 1410271 (SD rat) and 1410013 (human) respectively, wherein the microsomal protein concentrations both were 20 mg mL^−1;
(§3) experimental promoter β-NADPH purchased from Roche (batch No.: 524F0231); and a phosphate buffer solution (pH 7.4) made in the lab.
(§4) An appropriate amount of the test sample powder was weighed accurately, and dissolved in an appropriate amount of dimethyl sulfoxide (DMSO) to a concentration of 1 mM; and the solution was then diluted by 20 times with methanol to yield a 50 μM working solution.
(§5) (1) According to the proportions in table 3 “Composition of the incubation system for liver microsome metabolism stability experiment” above, for each compound, 6 mL of PBS (100 mM), 0.6 mL of MgCl2 solution (20 mM) and 3.66 mL of H2O were made into a mixed solution 1 for the incubation system (not containing the microsomes, the test sample and β-NADPH).
(§6) (2) Liver microsomes (20 mg protein/mL) were taken from a refrigerator (−80° C.), and were placed on a thermostatic water bath oscillator (37° C.) and pre-incubated for 3 mins.
(§7) (3) For each compound, 1.88 mL of the mixed solution 1 for the incubation system was added with 55 μL of microsomes to obtain a mixed solution 2 for the incubation system (not containing the test sample and β-NADPH).
(§8) (4) Sample group (containing the microsomes and D-NADPH): 616 μL of mixed solution 2 for the incubation system was added with 14 μL of the test sample working solution (with a concentration of 50 μM), and with 70 μL of R-NADPH working solution (10 mM). The resulted solution was well mixed, and the resulted solution was then duplicated. The time points of sampling were at 0 min, 5th min, 10th min, 20th min, 30th min and 60th min.
(§9) (5) Control group (containing the microsomes, and water instead of D-NADPH): 264 μL of mixed solution 2 for the incubation system was added with 6 μL of the test sample working solution (50 μM), and with 30 μL of water. The resulted solution was well mixed, and the resulted solution was then duplicated. The time points of sampling were at 0 min and 60th min.
(§10) (6) 50 μL of sample was taken from an incubating sample tube at each predetermined time point, added to a terminating sample tube (containing 300 μL of cold terminator), and vortexed; and the reaction was terminated.
(§11) (7) after 10 mins of vortexing, the solution was centrifuged for 5 mins (12,000 rpm).
(§12) (8) 100 μL of supernatant was taken and added with 100 μL of water, and the mixture solution was thoroughly vortexed; and the solution was then analyzed by LC-MS/MS.
(§13) Percentages of residual contents were calculated according to the following formula.

[2] = Liver microsome metabolism stability, human liver microsome; assay type: in vitro ADME; settings: 0.5 mg protein/mL, test sample 1 μM, β-NADPH
Procedure: as §1, §2, §3, §4, §5, §6, §7, §8, §9, §10, §11, §12, §13

With `O=C(O)c1ccc2nc(N3C[C@@H]4C[C@H]3C[C@H]4OCc3c(-c4c(Cl)cccc4Cl)noc3C3CC3)sc2c1` [Compound 2-1, 2-((1S, 4S, 5R)-5-((5-cyclopropyl-3-(2,6-dichlorophenyl)isoxazol-4-yl)methoxy)-2-azabicyclo[2.2.1]heptan-2-yl)benzo[d]thiazole-6-carboxylic acid] the pEC50 (SHP mRNA in AML12 cells) was 9.12, the “Residual content (%) after 60 minutes of incubation” value [1] was 77% and the “Residual content (%) after 60 minutes of incubation” value [2] was 69%.
